ChEMBL document CHEMBL1687734, “Pharmacokinetics of EDP-420 after multiple oral doses in healthy adult volunteers and in a bioequivalence study” (Antimicrob Agents Chemother, 2009)

Experiments:
[1] = AUC (0 to last) in 8 hrs fasted healthy human plasma at 200 mg, po administered as single dose of suspension; assay type: ADME, organism-based; design: dose 200 mg, route oral, time 0 - last
[2] = AUC (0 to last) in 8 hrs fasted healthy human plasma at 200 mg, po administered as single dose of two-100 mg capsules; assay type: ADME, organism-based; design: dose 200 mg, route oral, time 0 - last
[3] = AUC (0 to last) in high-fat fed healthy human plasma at 200 mg, po administered as single dose of two-100 mg capsules; assay type: ADME, organism-based; design: dose 200 mg, time 0 - last, route oral
[4] = AUC (0 to infinity) in 8 hrs fasted healthy human plasma at 200 mg, po administered as single dose of suspension; assay type: ADME, organism-based; design: dose 200 mg, route oral, time infinity
[5] = AUC (0 to infinity) in 8 hrs fasted healthy human plasma at 200 mg, po administered as single dose of two-100 mg capsules; assay type: ADME, organism-based; design: dose 200 mg, route oral, time infinity
[6] = AUC (0 to infinity) in high-fat fed healthy human plasma at 200 mg, po administered as single dose of two-100 mg capsules; assay type: ADME, organism-based; design: dose 200 mg, route oral, time infinity
[7] = Half life in 8 hrs fasted healthy human plasma at 200 mg, po administered as single dose of suspension; assay type: ADME, organism-based
[8] = Half life in 8 hrs fasted healthy human plasma at 200 mg, po administered as single dose of two-100 mg capsules; assay type: ADME, organism-based
Homo sapiens [9] = assay: Ratio of Cmax in 8 hrs fasted healthy human plasma at 200 mg, po administered as single dose of suspension to cmax in 8 hrs fasted healthy human plasma assessed as EDP-420 9-keto level at 200 mg, po administered as single dose of suspension; assay type: ADME, organism-based; conditions: in vivo
Homo sapiens [10] = assay: Ratio of Cmax in high-fat fed healthy human plasma at 200 mg, po administered as single dose of two-100 mg capsules to cmax in high-fat fed healthy human plasma assessed as EDP-420 9-keto level at 200 mg, po administered as single dose of two-100 mg capsules; assay type: ADME, organism-based; conditions: in vivo
Homo sapiens [11] = assay: Ratio of AUC (0 to infinity) in 8 hrs fasted healthy human plasma at 200 mg, po administered as single dose of suspension to AUC (0 to infinity) in 8 hrs fasted healthy human plasma assessed as EDP-420 9-keto level at 200 mg, po administered as single dose of suspension; assay type: ADME, organism-based; conditions: in vivo
[12] = AUC (0 to 24 hrs) in Alveolar macrophage of healthy human at 400 mg, po administered as single dose; assay type: ADME, organism-based; conditions: alveolar macrophages, read-out: Drug uptake
[13] = Ratio of AUC (0 to 24 hrs) in epithelial lining fluid of healthy human to AUC (0 to 24 hrs) in healthy human plasma at 400 mg, po administered as single dose; assay type: ADME, organism-based
[14] = Ratio of AUC (0 to 24 hrs) in Alveolar macrophage of healthy human to AUC (0 to 24 hrs) in healthy human plasma at 400 mg, po administered as single dose; assay type: ADME, organism-based; conditions: alveolar macrophages / plasma
[15] = Ratio of drug concentration in Epithelial lining fluid of healthy human at 400 mg, po administered as single dose after 24 hrs to drug concentration in Epithelial lining fluid of healthy human at 500 mg, po administered as single dose after 24 hrs; assay type: ADME, organism-based; conditions: in vivo
[16] = Ratio of drug concentration in Alveolar macrophage of healthy human at 400 mg, po administered as single dose after 24 hrs to drug concentration in Alveolar macrophage of healthy human at 500 mg, po administered as single dose after 24 hrs; assay type: ADME, organism-based; conditions: in vivo
Homo sapiens [17] = assay: Toxicity in healthy human assessed as occurrence of mortality at 400 mg administered once on day 1 followed by 200 mg once daily for 2 days during 3 days of treatment; assay type: organism-based; conditions: in vivo
Homo sapiens [18] = assay: Toxicity in healthy human assessed as severe adverse events at 400 mg administered once on day 1 followed by 200 mg once daily for 2 days during 3 days of treatment; assay type: organism-based; conditions: in vivo
Homo sapiens [19] = assay: Toxicity in healthy human in 8 hrs fasted healthy human assessed as incidence of severe adverse events at 200 mg, po administered as single dose of suspension; assay type: organism-based; conditions: in vivo
Homo sapiens [20] = assay: Toxicity in high-fat fed healthy human assessed as incidence of severe adverse events at 200 mg, po administered as single dose of two-100 mg capsules; assay type: organism-based; conditions: in vivo
Homo sapiens [21] = assay: Toxicity in healthy human in 8 hrs fasted healthy human assessed as changes in liver functions at 200 mg, po administered as single dose of suspension; assay type: organism-based; conditions: in vivo
Homo sapiens [22] = assay: Toxicity in healthy human in 8 hrs fasted healthy human assessed as changes in liver functions at 200 mg, po administered as single dose of two-100 mg capsules; assay type: organism-based; conditions: in vivo
Homo sapiens [23] = assay: Toxicity in high-fat fed healthy human assessed as changes in liver functions at 200 mg, po administered as single dose of two-100 mg capsules; assay type: organism-based; conditions: in vivo
Homo sapiens [24] = assay: Toxicity in healthy human in 8 hrs fasted healthy human assessed as changes in vital signs at 200 mg, po administered as single dose of suspension; assay type: organism-based; conditions: in vivo
Homo sapiens [25] = assay: Toxicity in high-fat fed healthy human assessed as changes in vital signs at 200 mg, po administered as single dose of two-100 mg capsules; assay type: organism-based; conditions: in vivo
Homo sapiens [26] = assay: Toxicity in healthy human in 8 hrs fasted healthy human assessed as changes in ECG at 200 mg, po administered as single dose of suspension; assay type: organism-based; conditions: in vivo
Homo sapiens [27] = assay: Toxicity in healthy human in 8 hrs fasted healthy human assessed as changes in ECG at 200 mg, po administered as single dose of two-100 mg capsules; assay type: organism-based; conditions: in vivo
Homo sapiens [28] = assay: Toxicity in high-fat fed healthy human assessed as changes in ECG at 200 mg, po administered as single dose of two-100 mg capsules; assay type: organism-based; conditions: in vivo
[29] = Cmax in healthy human plasma at 200 mg, po once daily for 3 days measured after 1 day; assay type: ADME, organism-based; design: dose 200 mg, route oral
[30] = AUC (0 to last) in healthy human plasma at 200 mg, po once daily for 3 days measured after 1 day; assay type: ADME, organism-based; design: dose 200 mg, time 0 - last, route oral
[31] = AUC (0 to last) in healthy human plasma at 200 mg, po once daily for 3 days measured after 3 days; assay type: ADME, organism-based; design: dose 200 mg, route oral, time 0 - last
[32] = Cmax in healthy human plasma at loading dose of 400 mg/day, po once daily for 3 days measured after 1 day; assay type: ADME, organism-based; design: dose 400 mg/day, route oral
[33] = Tmax in healthy human plasma at loading dose of 400 mg/day, po once daily for 3 days measured after 1 day; assay type: ADME, organism-based
[34] = Tmax in healthy human plasma at 400 mg administered once on day 1 followed by 200 mg once daily for 2 days during 3 days of treatment measured after 3 days; assay type: ADME, organism-based
[35] = AUC (0 to last) in healthy human plasma at 400 mg administered once on day 1 followed by 200 mg once daily for 2 days during 3 days of treatment measured after 3 days; assay type: ADME, organism-based; design: dose 400 mg, time 0 - last
Homo sapiens [36] = assay: Ratio of AUC (0 to 24 hrs) in healthy human plasma at loading dose of 400 mg/day, po once daily measured on 1 day to AUC (0 to 24 hrs) in healthy human plasma at 400 mg administered once on day 1 followed by 200 mg once daily for 2 days during 3 days of treatment measured on day 3; assay type: ADME, organism-based; conditions: in vivo
[37] = Cmax in 8 hrs fasted healthy human plasma at 200 mg, po administered as single dose of two-100 mg capsules; assay type: ADME, organism-based; design: dose 200 mg, route oral

For `CC[C@H]1OC(=O)[C@H](C)C(=O)[C@H](C)[C@@H](O[C@@H]2O[C@H](C)C[C@H](N(C)C)[C@H]2O)[C@@]2(C)C[C@@H](C)/C(=N\C(C)=O)[C@H](C)[C@@H](OC/C(=N\OCc3ccc(-n4cccn4)nc3)CO2)[C@]1(C)O` [MODITHROMYCIN], the AUC(0-t) [1] was 8.27 µg·h/mL, the AUC(0-t) [2] was 8.94 µg·h/mL and the AUC(0-t) [3] was 8.94 µg·h/mL. It also gave an AUC(0-inf) [4] of 8.35 µg·h/mL, an AUC(0-inf) [5] of 9.03 µg·h/mL and an AUC(0-inf) [6] of 9.04 µg·h/mL. For the same compound, the half-life [7] was 16.8 h, the half-life [8] was 16.9 h and the Ratio (Homo sapiens [9]) was 0.065. It also gave a Ratio (Homo sapiens [10]) of 0.092, a Ratio (Homo sapiens [11]) of 0.101 and an AUC [12] of 2560 µg·h/mL. The Kp [13] was 20.3, the Kp [14] was 245 and the Ratio [15] was greater than 72. For the same compound, the Ratio [16] was greater than 2, the Activity (Homo sapiens [17]) was “Non-toxic” and the Activity (Homo sapiens [18]) was “Non-toxic”. For the same compound, the Activity (Homo sapiens [19]) was “Non-toxic”, the Activity (Homo sapiens [20]) was “Non-toxic” and the Activity (Homo sapiens [21]) was “Non-toxic”. The Activity (Homo sapiens [22]) was “Non-toxic”, the Activity (Homo sapiens [23]) was “Non-toxic” and the Activity (Homo sapiens [24]) was “Non-toxic”. The Activity (Homo sapiens [25]) was “Non-toxic”, the Activity (Homo sapiens [26]) was “Non-toxic” and the Activity (Homo sapiens [27]) was “Non-toxic”. For the same compound, the Activity (Homo sapiens [28]) was “Non-toxic”, the Cmax [29] was 432 ng/mL and the AUC(0-t) at 24 h [30] was 6.2 µg·h/mL. It also gave an AUC(0-t) at 72 h [31] of 16.4 µg·h/mL, a Cmax [32] of 548 ng/mL and a Tmax [33] of 4 h. For the same compound, the Tmax [34] was 3.5 h, the AUC(0-t) [35] was 15 µg·h/mL and the “Ratio AUC” value (Homo sapiens [36]) was 0.99. It also gave a Cmax [37] of 405 ng/mL.
